Literature values, collected in patent US7285563B2, “Heteroaromatic urea derivatives as VR-1 receptor modulators for treating pain” (priority 2002, dated 2007).

Target: VR1 (Rattus norvegicus, UniProt O35433)
Sequence (O35433 whole entry): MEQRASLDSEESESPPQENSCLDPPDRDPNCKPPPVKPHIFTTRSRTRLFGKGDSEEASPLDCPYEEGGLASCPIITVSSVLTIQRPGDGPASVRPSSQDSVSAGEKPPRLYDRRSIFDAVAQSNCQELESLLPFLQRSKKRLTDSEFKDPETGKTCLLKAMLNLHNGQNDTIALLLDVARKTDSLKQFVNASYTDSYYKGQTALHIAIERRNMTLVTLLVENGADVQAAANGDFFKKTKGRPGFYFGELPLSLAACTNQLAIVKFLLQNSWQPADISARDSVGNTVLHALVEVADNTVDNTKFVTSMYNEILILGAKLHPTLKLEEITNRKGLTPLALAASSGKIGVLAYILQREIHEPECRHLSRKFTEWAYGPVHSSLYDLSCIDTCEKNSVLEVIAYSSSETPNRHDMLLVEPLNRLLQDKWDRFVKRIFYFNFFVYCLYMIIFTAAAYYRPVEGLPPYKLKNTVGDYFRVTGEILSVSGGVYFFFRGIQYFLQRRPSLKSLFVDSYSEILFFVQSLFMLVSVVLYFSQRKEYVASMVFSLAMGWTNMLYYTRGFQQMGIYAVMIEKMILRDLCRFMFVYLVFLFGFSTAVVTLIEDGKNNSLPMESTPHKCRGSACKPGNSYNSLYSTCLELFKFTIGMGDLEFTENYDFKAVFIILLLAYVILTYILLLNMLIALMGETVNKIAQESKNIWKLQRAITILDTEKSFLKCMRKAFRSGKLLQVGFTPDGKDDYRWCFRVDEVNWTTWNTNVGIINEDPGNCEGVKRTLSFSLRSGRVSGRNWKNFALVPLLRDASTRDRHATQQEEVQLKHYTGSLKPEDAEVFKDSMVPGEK

SMILES | antagonist of VR1 (Wahl et al., Mol. Pharmacol., 59:9, 2001) | affinity for VR1 (Walpole et al., J. Med. Chem., 37:1942, 1994)
C=C(C)[C@]12C[C@@H](C)[C@@]34O[C@](Cc5ccccc5)(O[C@@H]1[C@@H]3C=C(COC(=O)Cc1cc(I)c(O)c(OC)c1)C[C@]1(O)C(=O)C(C)=C[C@@H]41)O2 [Iodo-resiniferatoxin] | nanomolar antagonist | –
Oc1cc2c(cc1O)CN(C(=S)NCCc1ccc(Cl)cc1)CCC2 [capsazepine] | – | micromolar affinity
